Results taken from paper PMC10528299, “Targeting FAK/PYK2 with SJP1602 for Anti-Tumor Activity in Triple-Negative Breast Cancer” (Current Issues in Molecular Biology, 2023).
Values joined by “and” are separate entries in the source; they are usually repeats but may differ in a detail not shown here. Equal entries are not always repeated.

Tests used:
HCC70 = assay: 3D spheroid assay HCC70; assay type: cell-based; conditions: Homo sapiens, 96 h; HCC70, 4 days treatment; read-out: IC50 3D spheroid cell viability
Experimental: (§1) Breast cancer cell lines were cultured in medium with or without 2% Matrigel (Corning, NY, USA) for 3 days in each 96-well ultra-low attachment round plate to form a single spheroid at a density of 3 × 10^3 cells/well. SJP1602 was dissolved in DMSO and treated for 4 days at concentrations ranging from 200 nM to 20 μM. Cell viability was quantified according to the manufacturer’s instructions using a CellTiter-Glo 3D cell viability assay (Promega, Madison, WI, USA). Luminescence was measured using the Tecan Spark 10M.

BT-20 = assay: 3D spheroid assay BT-20; assay type: cell-based; conditions: Homo sapiens, 96 h; BT-20, 4 days treatment; read-out: IC50 3D spheroid cell viability
Experimental: as §1

BT-549 = assay: 3D spheroid assay BT-549; assay type: cell-based; conditions: Homo sapiens, 96 h; BT-549, 4 days treatment; read-out: IC50 3D spheroid cell viability
Experimental: as §1

Hs578T = assay: 3D spheroid assay Hs578T; assay type: cell-based; conditions: Homo sapiens, Hs-578T, 96 h, 4 days treatment, read-out: IC50 3D spheroid cell viability
Experimental: as §1

4T1 = assay: 3D spheroid assay 4T1; assay type: cell-based; conditions: Mus musculus, 96 h; 4T1, 4 days treatment; read-out: IC50 3D spheroid cell viability
Experimental: as §1

MDA-MB-231 cells = assay: Transwell cell migration assay; assay type: cell-based, human; conditions: 5 µM, 16 h
Experimental: Cell migration capacity was analyzed using the transwell migration assay. The 24-well chambers (8 μm pore size) were obtained from Corning (Corning, NY, USA). Cells treated with vehicle or FAK inhibitors (SJP1602, VS-6063, GSK2256098) at a concentration of 5 μM were resuspended in serum-free media and 5 × 10^4 cells were added to the upper compartment of the transwell chambers. Fresh culture medium with 5% FBS was added to the lower compartment. After 16 h, cells on the upper side of the filter were removed using cotton swabs. The underside of the filter was fixed in 100% methanol, washed in PBS, and stained using crystal violet. Migrated cells were analyzed using a microscope (Nikon, TE2000). Image analysis was performed using the color analysis function in Adobe Photoshop 2021 (Version 22.4.2, Adobe (San Jose, CA, USA)). Quantitative data were obtained from color measurement records in Adobe Photoshop 2021.

FGFR1(h) = biological target: T1, FGFR1(h) (Homo sapiens, UniProt P11362); assay: Eurofins kinase profiling; assay type: biochemical; conditions: read-out: residual kinase activity FGFR1(h)
T1 construct: purchased Eurofins KinaseProfiler
T1 sequence (P11362 22-822): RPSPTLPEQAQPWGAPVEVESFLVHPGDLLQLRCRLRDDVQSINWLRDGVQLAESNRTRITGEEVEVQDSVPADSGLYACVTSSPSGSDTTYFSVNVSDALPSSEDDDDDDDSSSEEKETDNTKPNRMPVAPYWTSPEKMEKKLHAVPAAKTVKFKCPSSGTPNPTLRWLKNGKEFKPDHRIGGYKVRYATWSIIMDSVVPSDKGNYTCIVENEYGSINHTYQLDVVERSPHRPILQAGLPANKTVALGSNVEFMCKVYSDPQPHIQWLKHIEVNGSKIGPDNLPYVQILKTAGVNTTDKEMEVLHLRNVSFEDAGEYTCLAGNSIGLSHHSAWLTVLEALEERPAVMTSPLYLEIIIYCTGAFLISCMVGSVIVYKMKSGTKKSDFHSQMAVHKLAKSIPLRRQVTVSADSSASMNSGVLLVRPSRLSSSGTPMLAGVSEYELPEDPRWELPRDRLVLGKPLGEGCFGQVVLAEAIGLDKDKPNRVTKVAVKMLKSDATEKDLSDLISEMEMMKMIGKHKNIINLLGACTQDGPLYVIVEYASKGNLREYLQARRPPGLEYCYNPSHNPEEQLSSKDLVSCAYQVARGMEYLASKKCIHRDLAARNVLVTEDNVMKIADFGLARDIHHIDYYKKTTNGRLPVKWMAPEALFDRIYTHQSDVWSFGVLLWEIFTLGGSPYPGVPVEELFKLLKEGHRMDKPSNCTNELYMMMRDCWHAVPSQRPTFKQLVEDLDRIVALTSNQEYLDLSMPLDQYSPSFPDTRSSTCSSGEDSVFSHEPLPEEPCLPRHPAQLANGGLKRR
In short: (§2)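 Protein kinases were run in the KinaseProfiler radiometric format with the test compound at 1 µM, and activity was measured by incorporation of radiolabeled phosphate. The assays followed the provider's standard protocols as part of a 110-kinase panel.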

PDK1(h) = biological target: T2, PDK1(h) (Homo sapiens, UniProt O15530); assay: Eurofins kinase profiling; assay type: biochemical; conditions: read-out: residual kinase activity PDK1(h)
T2 construct: purchased Eurofins KinaseProfiler
T2 sequence (O15530 1-556): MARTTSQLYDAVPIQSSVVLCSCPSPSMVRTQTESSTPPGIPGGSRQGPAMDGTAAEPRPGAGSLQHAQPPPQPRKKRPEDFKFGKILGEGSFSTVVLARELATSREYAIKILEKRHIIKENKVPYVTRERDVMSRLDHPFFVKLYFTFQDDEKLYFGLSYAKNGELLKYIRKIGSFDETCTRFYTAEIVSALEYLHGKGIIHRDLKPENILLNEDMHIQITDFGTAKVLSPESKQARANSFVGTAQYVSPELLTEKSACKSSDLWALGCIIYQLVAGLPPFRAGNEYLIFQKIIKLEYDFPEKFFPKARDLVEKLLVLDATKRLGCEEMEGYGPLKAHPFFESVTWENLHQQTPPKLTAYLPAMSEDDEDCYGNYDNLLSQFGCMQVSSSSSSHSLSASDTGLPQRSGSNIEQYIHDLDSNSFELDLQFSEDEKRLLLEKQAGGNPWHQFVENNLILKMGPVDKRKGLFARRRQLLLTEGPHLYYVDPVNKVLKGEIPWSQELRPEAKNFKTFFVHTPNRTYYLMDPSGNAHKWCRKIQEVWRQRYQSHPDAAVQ
In short: as §2

Ron(h) = biological target: T3, Ron(h) (Homo sapiens, UniProt Q04912); assay: Eurofins kinase profiling; assay type: biochemical; conditions: read-out: residual kinase activity Ron(h)
T3 construct: purchased Eurofins KinaseProfiler
T3 sequence (Q04912 25-1400): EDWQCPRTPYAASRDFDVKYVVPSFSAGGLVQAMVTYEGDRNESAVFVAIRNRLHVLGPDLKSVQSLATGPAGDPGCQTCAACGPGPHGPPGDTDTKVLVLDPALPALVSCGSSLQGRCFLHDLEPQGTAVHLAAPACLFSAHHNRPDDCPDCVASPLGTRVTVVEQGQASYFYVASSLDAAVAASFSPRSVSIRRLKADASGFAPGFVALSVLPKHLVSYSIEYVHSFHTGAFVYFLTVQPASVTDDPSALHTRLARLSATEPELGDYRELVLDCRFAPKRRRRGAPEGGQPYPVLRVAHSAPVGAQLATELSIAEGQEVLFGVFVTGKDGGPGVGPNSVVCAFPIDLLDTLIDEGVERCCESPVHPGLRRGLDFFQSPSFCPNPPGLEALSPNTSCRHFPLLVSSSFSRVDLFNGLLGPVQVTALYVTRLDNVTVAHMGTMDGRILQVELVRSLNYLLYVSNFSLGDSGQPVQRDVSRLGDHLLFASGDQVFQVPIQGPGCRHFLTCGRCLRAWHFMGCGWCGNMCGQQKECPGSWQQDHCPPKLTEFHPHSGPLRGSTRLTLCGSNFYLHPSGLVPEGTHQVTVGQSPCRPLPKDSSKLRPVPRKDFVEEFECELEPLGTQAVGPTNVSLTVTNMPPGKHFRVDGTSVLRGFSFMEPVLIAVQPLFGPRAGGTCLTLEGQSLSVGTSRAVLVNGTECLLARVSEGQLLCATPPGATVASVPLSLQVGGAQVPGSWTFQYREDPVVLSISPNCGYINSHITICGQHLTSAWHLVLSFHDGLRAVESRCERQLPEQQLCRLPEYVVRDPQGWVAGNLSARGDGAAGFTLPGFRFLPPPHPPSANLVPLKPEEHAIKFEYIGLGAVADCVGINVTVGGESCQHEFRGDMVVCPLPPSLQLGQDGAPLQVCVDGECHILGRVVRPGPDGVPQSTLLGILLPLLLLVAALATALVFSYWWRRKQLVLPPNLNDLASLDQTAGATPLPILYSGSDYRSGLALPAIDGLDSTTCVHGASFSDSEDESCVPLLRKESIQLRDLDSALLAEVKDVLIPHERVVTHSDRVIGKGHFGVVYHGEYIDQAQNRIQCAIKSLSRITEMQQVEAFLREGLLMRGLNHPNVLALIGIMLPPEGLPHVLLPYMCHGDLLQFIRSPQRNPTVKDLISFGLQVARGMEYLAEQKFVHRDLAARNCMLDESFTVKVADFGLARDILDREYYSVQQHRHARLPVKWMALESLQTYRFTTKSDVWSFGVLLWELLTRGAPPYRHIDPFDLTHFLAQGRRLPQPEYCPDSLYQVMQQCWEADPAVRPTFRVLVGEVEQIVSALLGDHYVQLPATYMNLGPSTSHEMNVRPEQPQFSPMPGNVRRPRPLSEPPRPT
In short: as §2

BT-549 xenograft = BT-549 xenograft mouse model
Experimental: (§3) Upon establishment of tumors, with an average tumor volume reaching approximately 100 mm^3, mice were grouped and subjected to daily oral dosing. […] The duration of drug administration was defined for 2 weeks based on the growth rate of the vehicle group of each xenografted tumor. The tumor volume was measured three times a week for potency measurement, and the body weight of mice was also measured three times a week for toxicity evaluation in vivo.

MDA-MB-231 xenograft = MDA-MB-231 xenograft mouse model
Experimental: as §3

MDA-MB-453 xenograft = MDA-MB-453 xenograft mouse model; conditions: for TGI: 56 days
Experimental: as §3

Insulin Receptor (InsR) = biological target: T4, Insulin Receptor (InsR) (Homo sapiens, UniProt P06213); assay: ADP-Glo kinase assay InsR; assay type: biochemical; conditions: mean ± SEM (n = 3)
T4 construct: purchased Promega V3901
T4 sequence (P06213 28-1382): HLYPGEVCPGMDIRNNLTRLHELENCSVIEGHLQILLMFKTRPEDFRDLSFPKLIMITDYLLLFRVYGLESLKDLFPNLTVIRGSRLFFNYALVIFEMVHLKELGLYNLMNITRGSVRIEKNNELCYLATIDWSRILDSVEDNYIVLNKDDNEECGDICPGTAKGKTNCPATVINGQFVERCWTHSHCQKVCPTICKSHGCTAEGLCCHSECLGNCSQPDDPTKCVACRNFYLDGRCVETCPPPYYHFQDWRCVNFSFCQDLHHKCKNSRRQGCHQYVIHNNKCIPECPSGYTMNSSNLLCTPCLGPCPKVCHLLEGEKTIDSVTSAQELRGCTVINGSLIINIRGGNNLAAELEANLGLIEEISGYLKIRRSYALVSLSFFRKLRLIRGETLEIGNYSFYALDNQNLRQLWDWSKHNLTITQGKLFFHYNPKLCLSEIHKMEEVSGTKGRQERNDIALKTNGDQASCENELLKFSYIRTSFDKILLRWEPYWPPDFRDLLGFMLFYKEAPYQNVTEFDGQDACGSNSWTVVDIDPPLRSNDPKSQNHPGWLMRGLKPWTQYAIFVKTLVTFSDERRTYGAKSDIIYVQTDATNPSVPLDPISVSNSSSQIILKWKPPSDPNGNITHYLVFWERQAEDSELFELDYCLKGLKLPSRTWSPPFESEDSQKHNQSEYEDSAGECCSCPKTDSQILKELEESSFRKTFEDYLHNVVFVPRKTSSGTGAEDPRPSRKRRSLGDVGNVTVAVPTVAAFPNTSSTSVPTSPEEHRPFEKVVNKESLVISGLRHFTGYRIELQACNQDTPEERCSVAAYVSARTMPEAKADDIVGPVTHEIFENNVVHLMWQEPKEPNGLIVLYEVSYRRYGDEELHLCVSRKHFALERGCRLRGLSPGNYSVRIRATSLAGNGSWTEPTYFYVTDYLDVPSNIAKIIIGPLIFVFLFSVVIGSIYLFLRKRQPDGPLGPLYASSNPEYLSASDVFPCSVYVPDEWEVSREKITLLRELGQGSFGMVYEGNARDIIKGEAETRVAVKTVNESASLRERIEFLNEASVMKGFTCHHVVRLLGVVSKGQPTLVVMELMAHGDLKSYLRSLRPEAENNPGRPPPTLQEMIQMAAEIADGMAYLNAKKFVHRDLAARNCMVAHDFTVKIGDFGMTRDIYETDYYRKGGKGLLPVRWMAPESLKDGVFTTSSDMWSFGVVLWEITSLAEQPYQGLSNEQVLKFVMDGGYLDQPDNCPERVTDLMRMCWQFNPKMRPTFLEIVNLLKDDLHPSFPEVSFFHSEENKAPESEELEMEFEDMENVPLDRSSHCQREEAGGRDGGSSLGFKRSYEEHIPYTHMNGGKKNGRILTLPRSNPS
Experimental: The kinase assays were performed and quantified according to the manufacturer’s instructions using the ADP-Glo™ Kinase Assay Kit for FAK (Promega, V1971), PYK2 (Promega, V4083) and InsR (Promega, V3901). Each kinase reaction mixture was prepared to contain the compounds of interest. After thorough pipetting, 25 μL of the mixture was added to each well and incubated for 1 h at room temperature. Subsequently, 25 μL of ADP-Glo reagent was added, followed by a 40 m incubation at room temperature. Next, 50 μL of the kinase detection reagent was added, and the mixture was incubated for an additional 30 m at room temperature. Luminescence was measured using the Tecan Spark 10M (Integration time: 1 s) (Männedorf, Switzerland).

[1] = Cytotoxicity on normal cell line WI38; assay type: cell-based; conditions: human, WI38 cells (normal cell line); read-out: Cytotoxicity on Normal Cell Lines IC50
[2] = Cytotoxicity on normal cell line Fa2N4; assay type: cell-based; conditions: human, Fa2N4 cells (normal cell line); read-out: Cytotoxicity on Normal Cell Lines IC50
[3] = Cytotoxicity on normal cell line FDF; assay type: cell-based; conditions: FDF cells (normal cell line); read-out: Cytotoxicity on Normal Cell Lines IC50

Question: For `CONC(=O)c1ccccc1Nc1cc(Nc2cc(C)nn2C(C)C)ncc1Cl` [GSK2256098], which IC50 (HCC70) is on record?
Answer: > 10 µM

Question: What about the IC50 (BT-20) of the same compound?
Answer: > 10 µM

Question: What about the IC50 (BT-549) of the same compound?
Answer: > 10 µM

Question: And the IC50 (Hs578T)?
Answer: > 10 µM

Question: And the IC50 (4T1)?
Answer: > 10 µM

Question: And the “serum-stimulated migration of MDA-MB-231 cells” value (MDA-MB-231 cells)?
Answer: did not affect

Question: What about the remaining activity at 1 µM (FGFR1(h)) of the same compound?
Answer: 109%

Question: What about the remaining activity at 1 µM (PDK1(h)) of the same compound?
Answer: 117%

Question: And the remaining activity at 1 µM (Ron(h))?
Answer: 91%

Question: What does the source list for `CNC(=O)c1ccc(Nc2ncc(C(F)(F)F)c(NCc3nccnc3N(C)S(C)(=O)=O)n2)cc1` [VS-6063, Defactinib]?
Answer: IC50 (HCC70): 8.18 µM; IC50 (BT-20): > 10 µM; IC50 (BT-549): > 10 µM; IC50 (Hs578T): 4.49 µM; IC50 (4T1): 1.19 µM; remaining activity at 1 µM (FGFR1(h)): 43%; remaining activity at 1 µM (PDK1(h)): 66%; remaining activity at 1 µM (Ron(h)): 72%; tumor growth inhibition (in words) (BT-549 xenograft; 80 mg/kg): ineffective; TGI (BT-549 xenograft; 80 mg/kg po QD): 10.1%; TGI (MDA-MB-231 xenograft; 80 mg/kg po QD, day 14): 54.6%; TGI (MDA-MB-453 xenograft; 80 mg/kg po QD): 110.9%

Question: What does the source list for `CNC(=O)c1cccc(C)c1Nc1nc(Nc2ccc(N3CCN(C4C5CC6CC4CC(O)(C6)C5)CC3)cc2OC)ncc1C(F)(F)F` (stereo not drawn) [SJP1602, 2-((2-((4-(4-((2s,5r)-5-hydroxyadamantan-2-yl)piperazin-1-yl)-2-methoxyphenyl)amino)-5-(trifluoromethyl)pyrimidin-4-yl)amino)-N,3-dimethylbenzamide]?
Answer: IC50 (Insulin Receptor (InsR)): 1.17 ± 0.0601 µM; IC50 (HCC70): 1.45 µM; IC50 (BT-20): 2.53 µM; IC50 (BT-549): 4.71 µM; IC50 (Hs578T): > 10 µM; IC50 (4T1): 0.184 µM; serum-stimulated migration of MDA-MB-231 cells (MDA-MB-231 cells): considerably reduced; IC50 [1]: 7.28 µM; IC50 [2]: 9.62 µM; IC50 [3]: > 10 µM; remaining activity at 1 µM (FGFR1(h)): 111%; remaining activity at 1 µM (PDK1(h)): 102%; remaining activity at 1 µM (Ron(h)): 75%; tumor growth inhibition (in words) (BT-549 xenograft; 20 mg/kg): pronounced inhibition of cancer growth; TGI (BT-549 xenograft; 20 mg/kg po QD): 76.0%; TGI (BT-549 xenograft; 80 mg/kg po QD): 77.5%; tumor weight (BT-549 xenograft; 80 mg/kg, day 21): did not statistically significantly decrease; TGI (MDA-MB-231 xenograft; 20 mg/kg po QD, day 14, 20 mg/kg): 72% and 72.1%; TGI (MDA-MB-231 xenograft; 40 mg/kg po QD, day 14, 40 mg/kg): 74%; TGI (MDA-MB-231 xenograft; 80 mg/kg po QD, day 14, 80 mg/kg): 81% and 81.3%; tumor mass and weight (MDA-MB-231 xenograft; 80 mg/kg, day 14): significant reduction; TGI (MDA-MB-453 xenograft; 20 mg/kg po QD): 88.9%; TGI (MDA-MB-453 xenograft; 80 mg/kg po QD): 114.1%; tumor volume and weight (MDA-MB-453 xenograft; 80 mg/kg, day 56): substantial reduction
